“And” between values parts separate entries of the source, which are not always exact repeats. Identical values can stand only once. “Also recorded” adds a separate entry of the source.
Key:
[1] = biological target: hERG potassium ion channel (Homo sapiens, UniProt Q12809)
[2] = Standard stock solution stability, 40° C./75±5% RH; format: physicochemical; conditions: 40° C./75% RH
Procedure: The stability of the crystalline compound was examined at 40° C./75±5% RH. Physical stability was examined through comparative XRPD analysis before and after the test, and chemical stability was examined by HPLC method. The experimental conditions used in the stability test for Compound 1a and the test results are as follows.
40° C./75±5% RH: Conditions in which the vial was open and upright.
A required amount (˜1 mg) of solid material was dissolved in 1 mL of a diluent (1:1 methanol/water), and the prepared solution was analyzed by HPLC.

[3] = Hygroscopicity test by DVS; format: physicochemical
Source text: Dynamic vapor sorption (DVS) is a method that has been used for a long time to investigate the interactions between active pharmaceutical ingredients (APIs), and pharmaceutical preparations and water. Here, to analyze the water absorption rate of a sample at a specific temperature, measurements are made by exposing the sample to the desired relative humidity using a DVS water sorption analyzer (hygroscopicity analyzer) until the change in weight of the sample stabilizes.

[4] = pH stability and salinity stability, 40±2° C.; format: physicochemical
Procedure: pH and salinity stability tests for the hemifumirate salt of Compound 1 were performed at an initial target concentration of 2 mg/mL. The pH and salinity stability conditions used to evaluate the hemifumirate salt of Compound 1 and the evaluation results are as follows.
• 40±2° C.: Conditions in which the vial was capped and upright • Storage container for stability: 2-mL screw neck clear glass vial (manufactured by La-Pha-Pack) • Target concentration: ˜ 2 mg/mL (adding the sample to 1 mL of medium, followed by vortexing for 30 seconds) • 500 μL of the test mixture was dissolved in 500 μL of a diluent (1:1 methanol/water), and the prepared solution was analyzed by HPLC without filtration.

[5] = Oxidation stability test (30% H2O2); format: physicochemical
[6] = tested on: T cells, CD4 T cells, and CD8 T cells; assay: Inhibitory effect against mouse immune cells (FACS after oral administration); format: in vivo; conditions: mice, oral 3 mg/kg
Procedure: In order to examine whether Compound 1, which acts on the S1P receptor, also is effective in reducing lymphocytes, the effect of Compound 1 on immune cells was evaluated. After oral administration of Compound 1 to mice at 3 mg/kg/day, changes in lymphocytes in peripheral blood (PB) and bone marrow (BM) were classified into T cells, CD4 T cells, and CD8 T cells. FACS analysis was performed 0, 4, 8, 12, 24, and 36 hours after administration of the test substance. Cell number was measured and expressed as a percentage relative to that at time 0 (% of control).

[7] = Effect on cardiovascular system in beagle dogs (telemetry); format: in vivo; conditions: oral 12.5, 25, and 50 mg/kg
Procedure: Compound 1a was orally administered to four non-anesthetized and unrestrained male beagle dogs implanted with remote transmitters. Next, the heart rates of the four beagle dogs were measured to evaluate the effect of Compound 1a on the cardiovascular system, and whether abnormal symptoms occurred was visually checked.
In this experiment, the test substance was administered to each of the four beagle dogs in four steps. In the first administration step (0 mg/kg of Compound 1a), 0.5% MC aqueous solution as control vehicle was administered, and in the second administration step, 12.5 mg/kg of Compound 1a was administered. In the third administration step, 25 mg/kg of Compound 1a was administered, and in the fourth administration step, 50 mg/kg of Compound 1a was administered. The first to fourth administrations were performed at one-week intervals. Additionally, 0 hour before administration of the test substance, and 0.5 hours, 1 hour, 2 hours, 3 hours, 4 hours, 6 hours, 8 hours, 12 hours, and 24 hours after administration of the test substance, the heart rates of the beagle dogs were measured.

Sequence of hERG potassium ion channel (Q12809 whole entry): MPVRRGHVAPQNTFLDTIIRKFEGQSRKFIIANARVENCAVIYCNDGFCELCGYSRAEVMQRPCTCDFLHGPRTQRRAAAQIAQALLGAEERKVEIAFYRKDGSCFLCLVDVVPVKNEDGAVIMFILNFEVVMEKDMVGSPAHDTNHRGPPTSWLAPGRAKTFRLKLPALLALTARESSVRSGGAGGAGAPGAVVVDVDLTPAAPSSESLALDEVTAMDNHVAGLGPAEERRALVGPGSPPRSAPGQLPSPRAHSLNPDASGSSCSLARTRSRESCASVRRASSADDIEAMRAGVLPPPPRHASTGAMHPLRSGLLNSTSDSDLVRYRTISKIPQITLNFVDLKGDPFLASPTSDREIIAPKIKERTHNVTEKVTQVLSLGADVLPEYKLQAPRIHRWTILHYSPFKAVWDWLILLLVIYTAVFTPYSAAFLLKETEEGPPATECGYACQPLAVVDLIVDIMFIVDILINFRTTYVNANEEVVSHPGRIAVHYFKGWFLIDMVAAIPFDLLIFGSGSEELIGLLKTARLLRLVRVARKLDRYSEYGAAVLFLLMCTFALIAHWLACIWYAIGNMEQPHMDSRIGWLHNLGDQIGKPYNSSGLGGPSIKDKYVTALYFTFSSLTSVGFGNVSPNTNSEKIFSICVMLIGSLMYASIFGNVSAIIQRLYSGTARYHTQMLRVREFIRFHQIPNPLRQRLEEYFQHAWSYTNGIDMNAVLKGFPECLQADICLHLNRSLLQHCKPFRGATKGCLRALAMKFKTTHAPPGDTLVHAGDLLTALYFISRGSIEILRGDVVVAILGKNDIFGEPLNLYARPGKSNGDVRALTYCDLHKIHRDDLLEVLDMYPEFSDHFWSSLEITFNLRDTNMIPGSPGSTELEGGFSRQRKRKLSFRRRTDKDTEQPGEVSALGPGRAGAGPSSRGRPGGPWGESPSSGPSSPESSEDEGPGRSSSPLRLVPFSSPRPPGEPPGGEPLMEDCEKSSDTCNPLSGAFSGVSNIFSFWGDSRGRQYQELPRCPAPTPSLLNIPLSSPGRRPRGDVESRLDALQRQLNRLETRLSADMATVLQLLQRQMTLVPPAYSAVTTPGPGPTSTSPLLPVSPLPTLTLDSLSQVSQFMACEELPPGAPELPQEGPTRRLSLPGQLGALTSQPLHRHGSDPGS

With `CCCCCCCCCCn1cc(CCC(N)(CO)CO)nn1` [Compound 1a, 2-amino-2-(2-(1-decyl-1H-1,2,3-triazol-4-yl)ethyl) propane-1,3-diol] the Hill coefficient [1] was 1.527, the “compensated suppression rate (%) of hERG channel currents” value ([1]; 30 μM) was 82.62±7.31% and the Purity % ([2]; 1-week) was 99.18%. For the same compound, the “XRPD (physical stability)” value ([2]; 1-week) was “Almost similar (some changes”, the “XRPD (physical stability)” value ([2]; 2-week) was “crystalline form was maintained; also recorded: Almost similar (some changes” and the Purity % ([2]; Initial) was 99.29%. For the same compound, the “XRPD (physical stability)” value ([2]; Initial) was “Crystalline”, the “hygroscopicity (DVS evaluation, in words)” value ([3]; 90% RH, listed as Example 1) was “very low hygroscopicity” and the “DVS remark (adsorption at 90% RH)” value ([3]; water adsorption at 90% RH, DVS) was “less than 2%”. The Purity % ([4]; SGF/40° C., 1-week) was 99.25%, the Purity % ([4]; SGF/40° C., 2-week) was 99.29% and the Purity % ([4]; SGF/40° C., Initial) was 99.13%. The Purity % ([4]; Saline (0.9% NaCl)/40° C., 1-week) was 99.05%, the Purity % ([4]; Saline (0.9% NaCl)/40° C., Initial) was 99.20% and the Purity % ([4]; pH 1.2 HCl buffer/40° C., 1-week) was 98.26%. For the same compound, the Purity % ([4]; pH 1.2 HCl buffer/40° C., 2-week) was 98.76%, the Purity % ([4]; pH 1.2 HCl buffer/40° C., Initial) was 98.92% and the Purity % ([4]; pH 4.7 acetate buffer/40° C., 1-week) was 99.46%. For the same compound, the Purity % ([4]; pH 4.7 acetate buffer/40° C., 2-week) was 99.69%, the Purity % ([4]; pH 4.7 acetate buffer/40° C., Initial) was 99.23% and the Purity % ([4]; pH 6.8 phosphate buffer/40° C., 1-week) was 98.36%. It also gave a Purity % ([4]; pH 6.8 phosphate buffer/40° C., Initial) of 99.20%, a Purity % ([5]; 30% H2O2 25° C. for 3 hours) of 99.50% and a Purity % ([5]; 30% H2O2 25° C. for 24 hours) of 94.30%. For the same compound, the “CD4 T cells in peripheral blood, relative to time 0 (% of control)” value ([6]; 4 hours) was 16.4% and 17.6%, the “CD8 T cells in peripheral blood, relative to time 0 (% of control)” value ([6]; 4 hours) was 5.9% and 9.3% and the “T cells in peripheral blood, relative to time 0 (% of control)” value ([6]; 4 hours) was 40.6% and 41.6%. The “T-cell distribution in bone marrow (BM), % of control” value ([6]; 4 hours) was 135% and 120%, the “T-cell distribution in bone marrow (BM), % of control” value ([6]; 24 hours) was 131% and 118% and the “general symptoms (visual observation)” value [7] was “no abnormal symptoms were observed”. The heart rate ([7]; up to 24 hours) was “no change in the heart rate”.
